Tests used:
[1] = molecular target: T1, human ALDH9A1 (HsALDH9A1) (Homo sapiens, UniProt P49189); assay: nanoDSF (Tycho NT.[…]); assay type: binding; details: 150 mM Tris/HCl pH 7.5, apoenzyme reference 69.5 °C
T1 construct: full-length 494-residue protein, His-tag kept (pCDFDuet, BamHI/XhoI), recombinant from E. coli; silent polymorphism at Ile110 codon

[2] = molecular target: T1, human ALDH9A1 (HsALDH9A1); assay: microscale thermophoresis; assay type: binding
[3] = molecular target: T1, human ALDH9A1 (HsALDH9A1); assay: NADH formation at […] nm, partial substrate inhibition fit; assay type: biochemical; details: substrate inhibition constant; 1 mM NAD+, 150 mM sodium pyrophosphate pH 7.5, 30 °C
[4] = molecular target: T1, human ALDH9A1 (HsALDH9A1); assay: microscale thermophoresis, RED-tris-NTA labelled His-tagged enzyme; assay type: binding
Source text: microscale thermophoresis, RED-tris-NTA labelled His-tagged enzyme on human ALDH9A1 (HsALDH9A1)

T1 sequence (P49189 whole entry): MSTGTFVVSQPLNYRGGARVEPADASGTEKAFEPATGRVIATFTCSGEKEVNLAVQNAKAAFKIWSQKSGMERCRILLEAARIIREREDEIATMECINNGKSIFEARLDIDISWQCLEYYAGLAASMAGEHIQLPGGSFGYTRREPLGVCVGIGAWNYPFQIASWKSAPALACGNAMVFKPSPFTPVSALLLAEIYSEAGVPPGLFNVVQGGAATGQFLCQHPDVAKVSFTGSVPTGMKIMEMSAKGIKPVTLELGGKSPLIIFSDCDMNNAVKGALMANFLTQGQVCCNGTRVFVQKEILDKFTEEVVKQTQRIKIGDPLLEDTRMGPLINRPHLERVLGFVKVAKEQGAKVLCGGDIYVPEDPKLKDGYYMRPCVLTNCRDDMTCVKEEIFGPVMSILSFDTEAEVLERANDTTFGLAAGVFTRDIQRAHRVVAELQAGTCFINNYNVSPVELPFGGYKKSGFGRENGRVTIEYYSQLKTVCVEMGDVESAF

| SMILES | Ki [3] | Kd [4] | other results |
| --- | --- | --- | --- |
| C[N+](C)(C)CCCC(=O)[O-] [TMABA] |  |  | Tm ([1]; 10 mM ligand): 66 °C; Kd [2]: 2600 ± 200 µM |
| CN(C)CCCC=O [DMABAL] | 10880 ± 1350 µM |  |  |
| N=C(N)NCCCC=O [GBAL] | 7230 ± 1650 µM |  |  |
| C[N+](C)(C)CC=O [BAL] |  | 171 ± 35 µM |  |
| C[N+](C)(C)CCCC=O [TMABAL, 4-(trimethylamino)butyraldehyde] | 2200 ± 590 µM | 6 ± 3 µM | Tm ([1]; 5 mM ligand): 63 °C |
| C[N+](C)(C)CCC=O [TMAPAL, 3-(trimethylamino)propionaldehyde] | 470 ± 45 µM |  |  |
| NC(=O)c1ccc[n+]([C@@H]2O[C@H](COP(=O)([O-])OP(=O)(O)OC[C@H]3O[C@@H](n4cnc5c(N)ncnc54)[C@H](O)[C@@H]3O)[C@@H](O)[C@H]2O)c1 [NAD^+] |  | 16 ± 3 µM | Tm ([1]; 5 mM ligand): 69.5 °C |
